According to USRE47193E1, “Selectively substituted quinoline compounds” (EISAI R&D MANAGEMENT CO., LTD., priority 2013, dated 2019):

What was measured:
mouse TLR7 = target: T1, mouse TLR7 (Mus musculus, UniProt P58681); assay: Short-term in vivo (STIV) assay: oral dosing, R848 s.c., plasma IL-6; design: female BALB/c mice (Jackson Labs, Bar Harbor, Me.) were dosed by oral gavage; tissue Jackson Labs; host or cells: living female BALB/c mice; plasma IL-6 after s.c. R848
T1 sequence (P58681 27-1050): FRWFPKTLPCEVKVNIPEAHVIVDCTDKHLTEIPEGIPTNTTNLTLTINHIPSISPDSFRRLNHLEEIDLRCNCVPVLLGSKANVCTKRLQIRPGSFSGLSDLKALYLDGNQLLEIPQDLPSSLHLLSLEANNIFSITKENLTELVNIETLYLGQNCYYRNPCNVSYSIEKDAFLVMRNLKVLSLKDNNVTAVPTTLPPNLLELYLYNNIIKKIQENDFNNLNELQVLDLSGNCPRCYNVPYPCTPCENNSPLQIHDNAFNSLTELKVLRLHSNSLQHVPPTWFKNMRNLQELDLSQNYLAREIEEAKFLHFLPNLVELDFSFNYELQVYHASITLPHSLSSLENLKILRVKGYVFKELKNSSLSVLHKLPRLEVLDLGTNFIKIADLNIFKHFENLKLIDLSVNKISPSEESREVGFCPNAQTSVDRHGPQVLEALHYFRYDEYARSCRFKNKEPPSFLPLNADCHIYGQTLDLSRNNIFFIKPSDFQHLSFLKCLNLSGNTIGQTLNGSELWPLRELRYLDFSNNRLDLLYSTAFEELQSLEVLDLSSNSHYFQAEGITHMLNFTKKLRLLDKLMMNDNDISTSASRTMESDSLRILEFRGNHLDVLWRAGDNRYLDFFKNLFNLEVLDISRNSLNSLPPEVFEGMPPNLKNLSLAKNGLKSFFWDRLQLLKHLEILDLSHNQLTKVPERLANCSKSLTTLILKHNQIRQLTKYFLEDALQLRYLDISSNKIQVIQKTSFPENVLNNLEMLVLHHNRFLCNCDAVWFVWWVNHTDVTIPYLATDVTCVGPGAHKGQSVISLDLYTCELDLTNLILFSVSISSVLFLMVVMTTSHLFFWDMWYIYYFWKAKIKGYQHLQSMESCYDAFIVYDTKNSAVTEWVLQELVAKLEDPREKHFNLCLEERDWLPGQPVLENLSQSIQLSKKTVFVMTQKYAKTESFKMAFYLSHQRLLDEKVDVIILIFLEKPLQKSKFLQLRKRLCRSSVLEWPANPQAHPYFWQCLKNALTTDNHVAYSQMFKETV
Protocol: Figure Legend: Female BALB/c mice were dosed by oral gavage with Vehicle alone (0.5% aqueous methyl-cellulose) or compound formulated in Vehicle at 33 mg/kg, 100 mg/kg or 300 mg/kg. […] (FIG. 1A).
Short-term in vivo (STIV) assay: To assess compound potency in vivo against mouse TLR7, a short-term in vivo (STIV) assay was utilized. Briefly, mice were orally dosed with compounds and at various time points afterwards were injected subcutaneously with agonist R848 to stimulate TLR7. The plasma IL-6 level following R848 stimulation was then measured by ELISA to assess compound potency and duration-of-action.
Short-term in vivo (STIV) assay. Six to eight week old female BALB/c mice (Jackson Labs, Bar Harbor, Me.) were dosed by oral gavage in 200 ul volume with antagonist compounds formulated in 0.5% aqueous methyl-cellulose (Sigma, St. Louis, Mo.). At various time points afterwards, mice were injected subcutaneously (s.c.) in 100 ul volume with 15 ug R848 (Resiquimod; GLSynthesis, Worcester, Mass.) to stimulate TLR7.

Human TLR7/8 = assay: Human PBMC cell-based assay, TLR7/8 stimulus (RNA-Ig), cytokine ELISA; settings: primary human PBMC assay, TLR7/8 potency; ligand not given; read-out: Human PBMCs IC50
Protocol: Human PBMC Cell-Based Assay. Human peripheral blood mononuclear cells (PBMC) were isolated from freshly-drawn heparinized (10 USP units/ml, Hospira, Lakeforest, Ill.) healthy donor whole blood by density gradient (Histopaque® 1077, Sigma, Inc., St. Louis, Mo.). Briefly, 25 ml blood was diluted with 15 ml PBS (without Ca^2+, Mg^2+) in a 50 ml conical tube, and 12 ml Histopaque was underlaid using a spinal needle. Tubes were centrifuged for 45 minutes at 1200 rpm (350×g), and PBMC were collected from the buffy coat. Cells were then washed twice in PBS, and red blood cells were lysed by suspension in 5 ml ammonium chloride solution (1× Red Blood Cell Lysis Buffer, eBioscience) for 5 minutes at room temperature. After a final wash in PBS, PBMC were resuspended at a final concentration of 2×10^6/ml in RPMI-1640 media with L-glutamine (Invitrogen) and supplemented with 25 mM HEPES (Mediatech, Inc, Manassas Va.), 10% fetal bovine serum (HyClone, Logan, Utah), and Penicillin-Streptomycin-Glutamine (Mediatech) and plated at 100 ul/well (2×10^5 cells/well) in tissue culture treated 96-well plates (Falcon).
Antagonist compounds solubilized and serial diluted in 100% DMSO were added in triplicate to cells to yield a final concentration of 0.1% DMSO (v/v). Hydroxychloroquine (Acros Organics) solubilized and serial diluted in PBS was added in triplicate to cells. PBMC were incubated with antagonist compounds or HCQ for 30 minutes at 37° C., 5% CO2 before adding various TLR agonist reagents in 100 ul complete media per well as follows (final concentrations indicated): R848 (Resiquimod; GLSynthesis, Worcester, Mass.) at 1 uM for TLR7 and TLR8, LPS (Sigma) at 10 ng/ml for TLR4, and CpG-2216 (InvivoGen) at 5 ug/ml for TLR9. To prepare a TLR7/8 agonist that mimics RNA-containing auto-antibody immune complexes in lupus patients, a 26-mer RNA with a sequence derived from human U1 snRNA stem loop IV [(sequence: […]-[…] (SEQ ID NO: 2) with phosphorothioate backbone] was synthesized (Dharmacon, Inc., Lafayette, Colo.), which has been shown previously to be a potent TLR7 and TLR8 agonist. This RNA molecule was diluted to 2.5 μM in serum-free RPMI, and mouse anti-human single stranded DNA monoclonal antibody (MAB3034, Millipore, Inc., Billerica, Mass.), which also cross-reacts with RNA, was added at a 1:25 dilution or at 1 ug/ml. The resulting “RNA-Ig” stimulus was incubated at room temperature for 15-30 minutes before adding to cells. PBMC were incubated with the various TLR agonists for 20 hours at 37° C., 5% CO2. Cell culture supernatants were collected, and levels of various human cytokines were assessed as indicated by standard ELISA procedure according to the manufacturer's recommended protocol (BD Biosciences, Inc., San Diego, Calif.). In a subsequent assay (Table 6) the ability of ER-899742 to block stimulation of normal PBMC by various TLR7/8 ligands, but not DNA-mediated activation of TLR9, was examined. In this assay cells were plated at 1×10^5 cells/well in 100 ul in 96-well plates.

SMILES	% Suppression vs. Vehicle (mouse TLR7; 3 h, 33 mg/kg) [%]	% Suppression vs. Vehicle (mouse TLR7; 6 h, 33 mg/kg) [%]	% Suppression vs. Vehicle (mouse TLR7; 6 h, 100 mg/kg) [%]	IC50 (Human TLR7/8) [µM]	other results
C[C@@H]1CN(c2ccc(C#N)c3ncccc23)C[C@H](CNC2CCCCC2)O1 [ER-886611]	90	90	100		% Suppression vs. Vehicle (mouse TLR7; 3 h, 100 mg/kg): 100%; % Suppression vs. Vehicle (mouse TLR7; 3 h after oral dose, 11 mg/kg): 53%; % Suppression vs. Vehicle (mouse TLR7; 6 h, 11 mg/kg): 0%; % Suppression vs. Vehicle (mouse TLR7; 19 h, 11 mg/kg): 19%; % Suppression vs. Vehicle (mouse TLR7; 19 h, 33 mg/kg): 0%; % Suppression vs. Vehicle (mouse TLR7; 19 h, 100 mg/kg): 100%
CC1CN(c2ccc(C#N)c3ncccc23)CC(CN2CCC(NC(=O)C(C)(C)C)CC2)O1 (stereo not drawn) [ER-889746]				0.073	
CC1CN(c2ccc(C#N)c3ncccc23)CC(C(=O)N2CCC(N(C)C)CC2)O1 (stereo not drawn) [ER-899459]				0.016	
CC1CN(c2ccc(C#N)c3ncccc23)CC(C(=O)NCC2CCCCN2)O1 (stereo not drawn) [ER-899415]				0.013	
Cc1nsc(NC(=O)C2CN(c3ccc(C#N)c4ncccc34)CC(C)O2)n1 (stereo not drawn) [ER-898923]				0.631	
CC1CN(c2ccc(C#N)c3ncccc23)CC(CN2CCC(N3CCCC3)C2)O1 (stereo not drawn) [ER-889571]				1	
CC1CN(c2ccc(C#N)c3ncccc23)CC(CN2CCNCC2C)O1 (stereo not drawn) [ER-890344]				0.002	
C[C@@H]1CN(c2ccc(C#N)c3ncccc23)C[C@H](Cn2cc(-c3ccccc3)nn2)O1 [ER-888604]				0.006	
CC1CN(c2ccc(C#N)c3ncccc23)CC(CN2CC(N3CCN(C)CC3)C2)O1 (stereo not drawn) [ER-890108]				0.009	
C[C@@H]1CN(c2ccc(C#N)c3ncccc23)C[C@H](C(=O)NC2(C#N)CC2)O1 [ER-898921]				0.302	
COc1cccnc1NC[C@H]1CN(c2ccc(C#N)c3ncccc23)C[C@@H](C)O1 [ER-886948]	46	35	44		% Suppression vs. Vehicle (mouse TLR7; 3 h, 100 mg/kg): 89%; % Suppression vs. Vehicle (mouse TLR7; 3 h, 300 mg/kg): 100%; % Suppression vs. Vehicle (mouse TLR7; 6 h, 300 mg/kg): 81%; % Suppression vs. Vehicle (mouse TLR7; 19 h, 33 mg/kg): 0%; % Suppression vs. Vehicle (mouse TLR7; 19 h, 100 mg/kg): 5%; % Suppression vs. Vehicle (mouse TLR7; 19 h, 300 mg/kg): 49%
C[C@@H]1CN(c2ccc(C#N)c3ncccc23)C[C@H](CN2CCC(N3CCN(C)CC3)CC2)O1 [ER-890223]	93	82	99		% Suppression vs. Vehicle (mouse TLR7; 3 h, 100 mg/kg): 99%; % Suppression vs. Vehicle (mouse TLR7; 19 h, 100 mg/kg): 88%
C[C@@H]1CN(c2ccc(C#N)c3ncccc23)C[C@H](CNc2ccccn2)O1 [ER-886788]	0	0	27		% Suppression vs. Vehicle (mouse TLR7; 3 h, 100 mg/kg): 0%; % Suppression vs. Vehicle (mouse TLR7; 3 h, 300 mg/kg): 24%; % Suppression vs. Vehicle (mouse TLR7; 6 h, 300 mg/kg): 26%; % Suppression vs. Vehicle (mouse TLR7; 19 h, 33 mg/kg): 0%; % Suppression vs. Vehicle (mouse TLR7; 19 h, 100 mg/kg): 17%; % Suppression vs. Vehicle (mouse TLR7; 19 h, 300 mg/kg): 2%
CC(C)C(=O)NC1CN(C[C@H]2CN(c3ccc(C#N)c4ncccc34)C[C@@H](C)O2)C1 [ER-894206]	96	85	98		% Suppression vs. Vehicle (mouse TLR7; 13 h, 33 mg/kg): 42%; % Suppression vs. Vehicle (mouse TLR7; 13 h, 100 mg/kg): 77%
C[C@@H]1CN(c2ccc(C#N)c3ncccc23)C[C@H](C(=O)NC2(C)CCN(C)CC2)O1 [ER-899835]			99		% Suppression vs. Vehicle (mouse TLR7; 13 h, 100 mg/kg): 79%
